The experiment has as its target PD-1/PD-L1 (Homo sapiens (Human), UniProt Q9NZQ7). In words: PD-1/PD-L1 Homogeneous Time-Resolved Fluorescence (HTRF) Binding Assay. The following applies: recombinant human PD-1 (3 nM) and PD-L1 (10 nM), 25° C., PBS pH 7.4. Here is the method: Example A. PD-1/PD-L1 Homogeneous Time-Resolved Fluorescence (HTRF) Binding Assay
The assays were conducted in a standard black 384-well polystyrene plate with a final volume of 20 μL. Inhibitors were first serially diluted in DMSO and then added to the plate wells before the addition of other reaction components. The final concentration of DMSO in the assay was 1%. The assays were carried out at 25° C. in the PBS buffer (pH 7.4) with 0.05% Tween-20 and 0.1% BSA. Recombinant human PD-L1 protein (19-238) with a His-tag at the C-terminus was purchased from AcroBiosystems (PD1-H5229). Recombinant human PD-1 protein (25-167) with Fc tag at the C-terminus was also purchased from AcroBiosystems (PD1-H5257). PD-L1 and PD-1 proteins were diluted in the assay buffer and 10 μL was added to the plate well. Plates were centrifuged and proteins were preincubated with inhibitors for 40 minutes. The incubation was followed by the addition of 10 μL of HTRF detection buffer supplemented with Europium cryptate-labeled anti-human IgG (PerkinElmer-AD0212) specific for Fc and anti-His antibody conjugated to SureLight®-Allophycocyanin (APC, PerkinElmer-AD0059H). After centrifugation, the plate was incubated at 25° C. for 60 min. before reading on a PHERAstar FS plate reader (665 nm/620 nm ratio). Final concentrations in the assay were—3 nM PD1, 10 nM PD-L1, 1 nM europium anti-human IgG and 20 nM anti-His-Allophycocyanin. IC50 determination was performed by fitting the curve of percent control activity versus the log of the inhibitor concentration using the GraphPad Prism 5.0 software.
In general terms: TR-FRET usually uses a lanthanide donor and a delayed reading to cut background.

Sequence of PD-1/PD-L1 (Q9NZQ7 19-238): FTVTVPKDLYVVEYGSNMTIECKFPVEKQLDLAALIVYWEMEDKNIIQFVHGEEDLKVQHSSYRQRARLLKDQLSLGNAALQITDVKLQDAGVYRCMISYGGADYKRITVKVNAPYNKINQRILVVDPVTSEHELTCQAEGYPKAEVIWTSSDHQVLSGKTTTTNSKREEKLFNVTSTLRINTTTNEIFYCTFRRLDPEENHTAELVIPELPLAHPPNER

Turning to `Cc1c(-c2nc3cc(CN4CC5(CC(C(=O)O)C5)C4)cc(C#N)c3o2)cccc1-c1cccc(-c2nc3c(s2)CN(C(=O)CN(C)[C@@H](C)CO)C3)c1C` [Example 232, 2-((7-cyano-2-(3′-(5-(2-(((S)-1-hydroxypropan-2-yl)(methyl)amino)acetyl)-5,6-dihydro-4H-pyrrolo[3,4-d]thiazol-2-yl)-2,2′-dimethylbiphenyl-3-yl)benzo[d]oxazol-5-yl)methyl)-2-azaspiro[3.3]heptane-6-carboxylic acid], the IC50 (in general, the concentration that gives 50% inhibition) is at most 0.01 µM.

Consider `Cc1c(-c2nc3cc(CN4CC5(CC(C(=O)O)C5)C4)cc(C#N)c3o2)cccc1-c1cccc(-c2nc3c(s2)CN(C(=O)CN(C)CCO)C3)c1C` [Example 230, 2-((7-cyano-2-(3′-(5-(2-((2-hydroxyethyl)(methyl)amino)acetyl)-5,6-dihydro-4H-pyrrolo[3,4-d]thiazol-2-yl)-2,2′-dimethylbiphenyl-3-yl)benzo[d]oxazol-5-yl)methyl)-2-azaspiro[3.3]heptane-6-carboxylic acid], for which the IC50 was at most 0.01 µM.

Take `Cc1c(Nc2nccc3cc(CN[C@@H](C)CO)cnc23)cccc1-c1cccc(-c2nc3cc(CN4CCC(C(=O)O)CC4)cc(C#N)c3o2)c1C` [Example 201, (S)-1-((7-cyano-2-(3′-(3-((1-hydroxypropan-2-ylamino)methyl)-1,7-naphthyridin-8-ylamino)-2,2′-dimethylbiphenyl-3-yl)benzo[d]oxazol-5-yl)methyl)piperidine-4-carboxylic acid]: the IC50 is at most 0.01 µM.

For the compound `Cc1c(-c2nc3cc(CN4CC[C@@H](O)C4)cc(C#N)c3o2)cccc1-c1cccc(NC(=O)c2nc3c(n2C)CCN(CCC2CCC(C(=O)O)CC2)C3)c1Cl` (stereo partly drawn) [Example 265, (R)-4-(2-(2-(2-chloro-3′-(7-cyano-5-((3-hydroxypyrrolidin-1-yl)methyl)benzo[d]oxazol-2-yl)-2′-methylbiphenyl-3-ylcarbamoyl)-1-methyl-6,7-dihydro-1H-imidazo[4,5-c]pyridin-5(4H)-yl)ethyl)cyclohexane carboxylic acid], the IC50 was at most 0.01 µM. With `Cc1c(Nc2nccc3cc(CN4CC[C@@H](C(=O)O)C4)cnc23)cccc1-c1cccc(-c2nc3cc(CN4CC[C@@H](O)C4)cc(C#N)c3o2)c1C` [Example 141, (R)-1-((8-(3′-(7-cyano-5-(((R)-3-hydroxypyrrolidin-1-yl)methyl)benzo[d]oxazol-2-yl)-2,2′-dimethylbiphenyl-3-ylamino)-1,7-naphthyridin-3-yl)methyl)pyrrolidine-3-carboxylic acid], the half-inhibitory concentration (IC50) was at most 0.01 µM.

With `Cc1c(-c2nc3c(o2)CN(C(=O)CN(C)C)C3)cccc1-c1cccc(-c2nc3cc(CN4CC[C@@H](C(=O)O)C4)cc(C#N)c3o2)c1C` [Example 122, (R)-1-((7-cyano-2-(3′-(5-(dimethylglycyl)-5,6-dihydro-4H-pyrrolo[3,4-d]oxazol-2-yl)-2,2′-dimethyl-[1,1′-biphenyl]-3-yl)benzo[d]oxazol-5-yl)methyl)pyrrolidine-3-carboxylic acid], the half-maximal inhibitory concentration (IC50) was at most 0.01 µM. To `Cc1c(Nc2nccc3cc(CNC[C@H](C)O)cnc23)cccc1-c1cccc(-c2nc3cc(CN4CC[C@@](C)(C(=O)O)C4)cc(C#N)c3o2)c1C` [Example 191, (R)-1-((7-cyano-2-(3′-(3-(((S)-2-hydroxypropylamino)methyl)-1,7-naphthyridin-8-ylamino)-2,2′-dimethylbiphenyl-3-yl)benzo[d]oxazol-5-yl)methyl)-3-methylpyrrolidine-3-carboxylic acid] belongs at most 0.01 µM.

On to `Cc1c(-c2nc3cc(CN4CC[C@@H](C(=O)O)C4)cc(C#N)c3o2)cccc1-c1cccc(-c2nc3c(s2)CN(CCO)CC3)c1C` [Example 65, (R)-1-((7-cyano-2-(3′-(5-(2-hydroxyethyl)-4,5,6,7-tetrahydrothiazolo[5,4-c]pyridin-2-yl)-2,2′-dimethyl-[1,1′-biphenyl]-3-yl)benzo[d]oxazol-5-yl)methyl)pyrrolidine-3-carboxylic acid], for which the IC50 was at most 0.01 µM.

The values are drawn from patent publication US10308644B2, “Heterocyclic compounds as immunomodulators” (Incyte Corporation, priority 2016, dated 2019).
